# Key:
# histamine 1 receptor H1R = biological target: T1, histamine 1 receptor H1R (Homo sapiens, UniProt P35367); assay: H1R calcium flux fluorescence assay with GCaMP3 or small molecule dye kits; type: cell-based; settings: HEK293 and HeLa cells
# T1 construct: The H1R was cloned into the pCAG mammalian expression vector; expressed in transfected cells; host or cells: HEK293 and HeLa cells, transfected with pCAG-H1R (with pCAG-GCaMP3 or loaded with a dye kit)
# Method: The nucleic acid sequence was cloned into a mammalian expression vector driving from the CAG promoter (pCAG).
# The H1R was cloned into the pCAG mammalian expression vector. […] In parallel, HEK293 cells were transfected with pCAG-H1R and incubated with either of the two best-performing small molecule dye calcium kits (the BD Calcium Kit from BD Biosciences and the FLIPR Calcium-5 Kit from Molecular Devices). […] Biophys.
# HEK293 cells = assay: Baseline fluorescence (brightness) of GCaMP-transfected HEK293 cells; type: cell-based, human; settings: 10 μM proteasome inhibitor
# Method: FIGS. 1A-1E show the in vitro characterization of GCaMP3. […] FIG. 1B is a schematic representation of GCaMP2 and GCaMP3. Mutated residues are shown below GCaMP3. FIG. 1C is a graph of the fluorescence spectra of GCaMP3 and GCaMP2 (1 μM protein) with 1 mM Ca^2+ or 10 mM EGTA in MOPS buffer (30 mM MOPS, 100 mM KCl, pH 7.5) (average of three independent measurements). The fluorescence intensity of each indicator was normalized to the peak of the calcium-saturated spectrum. […] FIG. 1D is a graph of the Ca^2+ titration curve (1 μM protein) in MOPS buffer. […] FIG. 1E is images (left) and a graph (right) showing the improved baseline fluorescence of GCaMP3 compared to GCaMP2. Both indicators were either transfected to HEK293 cells or virally delivered to layer 2/3 cortical neurons. Images were taken either 48 hours post-transfection or 12 days post-viral injection, then analyzed with VOLOCITY® 5.0 (Improvision Imaging Processing & Vision Co., Coventry, England). 50 μm scale bar. […]
# GCaMPs in pCMV were transfected into HEK293 cells using Lipofectamine 2000 (Invitrogen, Carlsbad, Calif.), and imaging experiments were performed 48 hours post transfection. 293 cells transfected with GCaMPs in 96-well plate were imaged on an FDSS plate reader (Hamamatsu, Japan). Acetylcholine (Ach) was automatically added 10 seconds after read initiation. Brightness was quantified using VOLOCITY® 5.0 (Improvision).
# T1 sequence (P35367 with tags, fused parts or gaps): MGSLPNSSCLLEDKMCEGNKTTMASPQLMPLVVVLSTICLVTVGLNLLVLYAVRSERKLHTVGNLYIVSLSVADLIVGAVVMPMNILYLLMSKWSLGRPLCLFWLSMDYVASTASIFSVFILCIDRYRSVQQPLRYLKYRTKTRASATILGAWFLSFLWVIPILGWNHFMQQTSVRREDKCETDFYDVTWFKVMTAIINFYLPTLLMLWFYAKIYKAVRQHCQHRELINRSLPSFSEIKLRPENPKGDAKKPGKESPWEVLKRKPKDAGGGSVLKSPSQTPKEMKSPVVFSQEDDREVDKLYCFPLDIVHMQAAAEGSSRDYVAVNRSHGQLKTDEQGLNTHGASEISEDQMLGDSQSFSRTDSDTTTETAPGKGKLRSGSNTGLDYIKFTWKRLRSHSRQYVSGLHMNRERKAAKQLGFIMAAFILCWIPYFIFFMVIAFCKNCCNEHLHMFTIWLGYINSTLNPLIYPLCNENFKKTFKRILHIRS
structure (smiles),measurement,setting,value
O=C(O)COCCN1CCN(C(c2ccccc2)c2ccc(Cl)cc2)CC1 (stereo not drawn) [cetirizine],response-to-baseline ratio,"histamine 1 receptor H1R; 10 nM histamine plus antagonist, all detection methods",~1.0
same,inhibition of the H1R receptor,"histamine 1 receptor H1R; 10 nM histamine, GCaMP3 and both dye kits",near complete inhibition
CC(=O)N[C@@H](CSC(=O)[C@]1([C@@H](O)C(C)C)NC(=O)[C@H](C)[C@@H]1O)C(=O)O [lactacystin],effect on baseline fluorescence of HEK293 cells expressing GCaMP2,HEK293 cells,increased the baseline fluorescence
